Legend:
[1] = test system: κB-LUC THP-1 (NF-κB Luciferase Reporter); test: NF-κB activation, luciferase reporter, dose response without added ligand; type: cell-based, human; settings: κB-LUC THP-1, 24 hours, increasing concentrations, no added ligand; FIGS. 1A-1C
Excerpt: The inventors performed several studies to identify the effect of calcium flux agonists on various components of an immune response, and particularly on the effect of calcium flux agonists on IL-8 production and activation of NF-κB signaling. […] The dose response is observed over relatively large windows for ionophores (e.g., A23187 and ionomycin) and over at least two orders of magnitude for SERCA inhibitors (e.g., thapsigargin).
More specifically, the dose response of ionophores on NF-κB and IL-8 is shown in FIGS. 1A-1B using a monocyte-derived cell line to treatment and A23187 and ionomycin in the absence of externally added TLR or NOD ligands. […] FIG. 1C depicts the dose response to thapsigargin on NF-κB and IL-8.
NF-κB activation: A titration of thapsigargin (A.G. Scientific), ionomycin, and the calcium ionophore A23187 was added to a 96-well plate (Thermo Matrix) seeded with 150,000 THP-1 κB-LUC THP-1's (THP-1 cells containing the stable integration of a NF-κB Luciferase Reporter) grown in RPMI 1640 (Cellgro, Herndon VA) supplemented with 10% FBS (Thermo HyClone) and 1% penicillin-streptomycin-fungizone (Thermo HyClone). 24 hours after addition, 25 uL of Bright-Glo Luciferase Assay System (Promega, Madison Wis.) was added to each well and analyzed for luciferase activity using Perkin Elmer TopCount NXT (Perkin Elmer, Waltham Mass.).

[2] = test system: TLR2 ligand response of THP-1 promonocytic leukemia cell line; test: IL-8 release with TLR2 ligand plus suboptimal calcium flux agonist (FIG. 2); type: cell-based, human; settings: THP-1 cells, suboptimal doses of ionophore; beyond cumulative individual responses (synergy)
Description: (§1) For example, human promonocytic THP-1 cells were incubated in the presence or absence of a suboptimal dose of the TLR2 ligand Pam2CSK4 and compared to similarly treated cells which also received suboptimal doses of ionophore (here: A23187 and ionomycin). […] In another example, NF-κB THP-1 cells (a THP-1-derived transfectant line harboring an NF-κB-driven luciferase expression cassette) were cultivated in the presence or absence of a suboptimal dose of the TLR2 ligand Pam2CSK4 and compared to similarly treated cells that also received suboptimal doses of various SERCA inhibitors.
Here, the ionophores A23187 and ionomycin, as well as the SERCA inhibitor thapsigargin synergize with the TLR2 ligand (Pam2CYS) in the activation of cytokine release from the human THP-1 promonocytic leukemia cell line. It should be especially noted that while the TLR2 ligand alone provided for about 5 ng/ml IL-8 response, addition of a suboptimal dose of the calcium flux agonists (e.g. 20 nM for thapsigargin, 316 nM for A23187, and 1 μM for ionomycin) produced more than 10-fold quantities of IL-8 production in the cells.

[3] = test system: methicillin-sensitive S. aureus (MSSA); test: Direct antibiotic activity in liquid culture assay, MSSA; type: cell-based
Description: Consistent with these and previous results regarding their inherent antibiotic activity against S. aureus, the inventors confirmed the direct antibiotic activity of both ionophores for direct antibiotic activity on methicillin-sensitive S. aureus (MSSA).
(§2) To determine the antibiotic sensitivity of S. aureus, cultures were grown overnight in tryptic soy broth (Cellgro). The resulting cultures were used to inoculate new cultures to ensure log phase growth prior to the start of the experiment. Once the bacteria had reached log phase the bacteria was diluted to the appropriate OD600˜0.05 and transferred to a 24-well plate. Compounds of interest were added and plates were incubated in a shaking incubator at 37° C. Aliquots were removed at various time points and their respective OD600 was measured using a BioTek Synergy2 microplate reader (BioTek, Winooski, Vt.). For wells whose turbidity was affected by the addition of the compounds of interest, aliquots were removed and plated on tryptic soy agar (Cellgro) and incubated overnight in a 37° C. incubated and counted the following day. Thus, it should be appreciated that the calcium flux agonists are effective in antimicrobial treatments via an indirect effect, most likely due to the enhanced production of IL-8 and increased NF-κB-driven transcription.

S. aureus [4] = test: Antibiotic sensitivity of S. aureus (OD600 / plating, FIGS. 9A-9C, 10); type: cell-based; settings: log phase culture, OD600 over time, control kanamycin, 9B
Description: as §2

NF-κB THP-1 cells = test: NF-κB luciferase reporter synergy with TLR2 ligand and effect of Ca2+ modulating compounds (FIG. 4); type: cell-based, human; settings: NF-κB THP-1 cells, suboptimal doses of SERCA inhibitors; beyond cumulative individual responses (synergy)
Description: as §1
The inventors further investigated if the nature of calcium flux was of significance as increased intracellular calcium may have different origins. To that effect, the inventors used various calcium signaling modulators to investigate the nature of the calcium flux and contribution. As can be readily taken from the data shown, extracellular calcium flux into the cell was critical for synergistic amplification of calcium signaling. More specifically, FIG. 4 illustrates the effects of different Ca^2+ modulating compounds on synergy with respect to NF-κB activation.

S. aureus [5] = test: Killing of intracellular S. aureus by thapsigargin-treated differentiated THP-1 cells (FIG. 11); type: cell-based, human; settings: 1 day with 20 nM thapsigargin vs vehicle, MOI of 10
Description: Briefly, a logarithmically dividing S. aureus was pelleted (2000×g for 10 min) and washed three times with Hank's Buffered Salt Solution (Cellgro). Concurrently, 2 day differentiated THP-1 cells (using 1 uM retinoic acid and 1 uM cholecalciferaol, Sigma-Aldrich) followed by 1 day with 20 nM thapsigargin or vehicle were collected and washed in Hank's Buffered Salt Solution. Differentiated cells were supplemented with 10% human serum (Innovative Research) and chilled on ice for 30 minutes. After the 30 minutes, S. aureus (MOI of 10) was added on ice for an additional 20 minutes to synchronize binding. Tubes were then incubated for 20 minutes at 37° C. After 20 minutes, 10 U/mL of lysostaphin (Sigma-Aldrich) was added to eliminate non-internalized bacteria. At the desired time points (20, 30, 60 minutes) 20 uL aliquots were removed and diluted into 10 mL of water. The dilution tubes were vortex and allowed to sit at room temp for 10 minutes to ensure proper lysis of the primary cells. After 10 minutes, the dilution tubes were centrifuged for 10 minutes at 2000×g and the remaining S. aureus was concentrated 20 fold and plated in triplicate on tryptic soy agar (Cellgro) and incubated overnight at 37° C. prior to colony enumeration.

[6] = target: sarco/endoplasmic reticulum Ca2+ ATPases (SERCA); settings: cited from earlier work

Structure (SMILES) | activation of NF-κB signaling [1] | amount of IL-8 produced with suboptimal TLR2 ligand Pam2CSK4 [2] | direct antibiotic activity against MSSA [3] | direct antibiotic effect against S. aureus (S. aureus [4]) | amount of luciferase produced with suboptimal TLR2 ligand Pam2CSK4 (NF-κB THP-1 cells) | antimicrobial activity of treated cells against internalized S. aureus (S. aureus [5]) | affinity constant of Thapsigargin:SERCA binding [6]
CNc1ccc2oc(C[C@H]3O[C@@]4(CC[C@H]3C)O[C@H]([C@H](C)C(=O)c3ccc[nH]3)[C@H](C)C[C@H]4C)nc2c1C(=O)O [A23187, calcimycin] | significant increases | significantly increased | the more active compound | some direct antibiotic effect |  |  | 
C[C@H](CCC(=O)O)C[C@H](C)C[C@H](C)C(=O)/C=C(\O)[C@H](C)C[C@H](C)C/C=C/[C@@H](C)[C@@H](O)[C@@H](C)[C@@H](O)C[C@@H]1CC[C@@](C)([C@H]2CC[C@@](C)([C@@H](C)O)O2)O1 [ionomycin] | significant increases | significantly increased |  | some direct antibiotic effect |  |  | 
C/C=C(/C)C(=O)O[C@H]1C(C)=C2[C@H]([C@@H]1OC(=O)CCCCCCC)[C@@](C)(OC(C)=O)C[C@H](OC(=O)CCC)[C@@]1(O)[C@H]2OC(=O)[C@@]1(C)O [thapsigargin] | significant increases |  |  | lack of direct antibiotic effect | significantly increased | greater antimicrobial activity | low picomolar range
